Type in all cases: in vivo
Series [1] concerns common mosquito (Culex pipiens pallens). Nature of the series: Emergence inhibition test on last instar mosquito larvae (Test example 1). As to conditions: 0.01 ppm in water; 20 last instar larvae bred until emergence; two replications. The method, then: The emulsifiable concentrates of the following test compounds obtained according to Formulation example 1 were each diluted with water to a concentration of 0.01 ppm. Thereafter, 100 ml of each dilute solution thus obtained was put in a 180-ml polyethylene cup, and 20 last instar larvae of common mosquito (Culex pipiens pallens) were liberated therein. The larvae were bred on a bait until emergence to obtain an emergence inhibitory ratio (two replications).

The subject of series [2] is tobacco cutworm (Spodoptera litura). Nature of the series: Mortality test on fourth instar larvae with treated artificial diet (Test example 2). As to conditions: 50 ppm, 2 ml on 13 g artificial diet, after six days, two replications, 8640 min. The text has this: The emulsifiable concentrates of the following test compounds obtained according to Formulation example 1 were each diluted with water to a concentration of 50 ppm. Two milliliters of each dilute solution thus obtained was applied onto 13 g of artificial diet for tobacco cutworm (Spodoptera litura) which were then put in a polyethylene cup of 11 cm in diameter. Then, ten fourth instar larvae of tobacco cutworm were liberated in the cup. After six days, the dead and alive were examined to obtain mortality (two replications).

Series [3] relates to carmine spider mite (Tetranychus cinnabarinus). As to the kind of experiment: Adult emergence inhibition test on sprayed deutonymphs (Test example 3). As to conditions: 3 ml sprayed, after three days. The method, then: The emulsifiable concentrates of the following test compounds obtained according to Formulation example 1 were each diluted with water to a pre-determined concentration to obtain a dilute solution of each emulsifiable concentrate. From 20 to 60 deutonymphs of carmine spider mite (Tetranychus cinnabarinus) were transferred onto leaves in a petri dish, and 3 ml of the dilute solution was sprayed thereon. After three days, the number of the adults was counted to obtain an adult emergence inhibitory ratio.

The subject of series [4] is carmine spider mite (Tetranchus cinnabarinus). Nature of the series: Sterilization test on sprayed female adults, egg hatchability (Test example 4). As to conditions: 100 ppm, 3 ml sprayed on female adults; oviposition three days; hatchability after six days at 27°C. The method, then:
The emulsifiable concentrates of the following test compounds obtained according to Formulation example 1 were each diluted with water to a concentration of 100 ppm to obtain a dilute solution of each emulsifiable concentrate. Thirty female adults of carmine spider mite (Tetranchus cinnabarinus) were transferred onto a leaf in a petri dish, and 3 ml of the dilute solution was sprayed thereon. After air-drying, 18 female adults were transferred onto untreated leaves in a petri dish, and allowed to oviposit for three days. The eggs obtained were stored in a chamber controlled at 27°C in an artificial weather room. After six days, hatchability of the eggs was examined to obtain a sterilization ratio.

Series [5] has as its system carmine spider mite (Tetranychus cinnabarinus). Nature of the series: Degree of mite damage on potted kidney bean after spray and soil treatment (Test example 5). Set-up: key: -: Little damage is observed.; +: Slight damage is observed.; ++: Same damage as in the untreated plot is observed. As to conditions: 500 ppm, 10 ml sprayed on plant, 2 ml on pot soil, after 20 days. The method, then:
Ten female adults of carmine spider mite (Tetranychus cinnabarinus) were transferred onto each leaf of potted kidney bean in a primary leaf stage, which had elapsed seven days after sowing, and stored in a constant-temperature room kept at 25°C. After six days, the emulsifiable concentrate of the following test compounds formulated according to Formulation example 1 was diluted with water so that the active ingredient concentration was 500 ppm. Ten milliliters of the dilute solution was sprayed onto the plant on a turn table by a spray gun, and 2 ml of the diluted solution was treated on the pot soil. After 20 days, the degree of damage of each kidney bean by mites was examined.
The degree of damage was classified into three stages, -, + and ++. - : Little damage is observed. + : Slight damage is observed. ++: Same damage as in the untreated plot is observed.

Here are results for two compounds from EP0278673B1, “A benzoylurea derivative and its production and use” (priority 1987, dated 1988).

Each structure is given as a SMILES string.

As to `O=C(NC(=O)c1c(F)cccc1F)Nc1cc(Cl)c(Nc2ccc(OC(F)(F)C(F)F)cc2)c(Cl)c1` [(3), N-2,6-difluorobenzoyl-Nʹ-3,5-dichloro-4-[4-(1,1,2,2-tetrafluoroethoxy)anilino]phenylurea], the “Emergence inhibitory ratio (%)” value in series [1] came to 100%. The “Mortality (%)” value in series [2] was found to be 100%. The “Concentration and adult emergence inhibitory ratio (%) 100 ppm” value in series [3] was 91%. Moreover, the “Sterilization ratio (%)” value in series [4] is 95%.
As for `O=C(NC(=O)c1c(F)cccc1F)Nc1cc(Cl)c(Nc2ccc(OC(F)(F)F)cc2)c(Cl)c1` [(1), N-2,6-difluorobenzoyl-Nʹ-3,5-dichloro-4-[4-(trifluoromethoxy)anilino]phenylurea], the “Emergence inhibitory ratio (%)” value in series [1] is reported as 100%. Besides, the “Mortality (%)” value in series [2] came out at 100%. Moreover, the “Concentration and adult emergence inhibitory ratio (%) 100 ppm” value in series [3] turned out to be 100%. For the same compound, in series [3] (500 ppm), the “Concentration and adult emergence inhibitory ratio (%) 500 ppm” value stood at 94%. In series [4], the “Sterilization ratio (%)” value worked out at 98%. Moreover, in series [5], the Degree of damage entry was “-”.
